# Reference: ChEMBL document CHEMBL4393731, “Discovery of fused bicyclic derivatives of 1H-pyrrolo[1,2-c]imidazol-1-one as VDR signaling regulators” (Bioorg Med Chem, 2019)
# Active and inactive are the calls of the source. The rule behind the calls is not given here.
# Tested on: HeLa
# Test: Induction of autophagy in human HeLa cells transformed with shRNA against VDR assessed as downregulation of LC3-2 expression at 10 uM measured after 4 hrs
# Format: functional, cell-based
row,SMILES,Activity
1,COc1ccc(C[C@H]2N(c3ccc([N+](=O)[O-])cc3)C(=O)[C@@H]3CCCN32)cc1OC,Active

# Tested on: HeLa
# Test: Induction of autophagy in human HeLa cells transformed with VDR shRNA assessed as up regulation of LC3-1 expression at 10 uM measured after 4 hrs in presence of calcitriol by Western blot analysis
# Format: functional, cell-based
row,SMILES,Activity
1,O=C1[C@@H]2CCCN2[C@@H](c2ccco2)N1c1ccc([N+](=O)[O-])cc1,Active
2,COc1ccc(C[C@H]2N(c3ccc([N+](=O)[O-])cc3)C(=O)[C@@H]3CCCN32)cc1OC,Active
3,CSCC[C@H](N)C(=O)Oc1ccc([C@H]2N(c3ccc([N+](=O)[O-])cc3)C(=O)[C@@H]3CCCN32)cc1.Cl,Active
4,CSCC[C@H](NC(=O)OC(C)(C)C)C(=O)Nc1ccc([C@H]2N(c3ccc([N+](=O)[O-])cc3)C(=O)[C@@H]3CCCN32)cc1,Active

# Biological target: T1, Vitamin D3 receptor (Homo sapiens) (UniProt P11473)
# T1 sequence (whole entry): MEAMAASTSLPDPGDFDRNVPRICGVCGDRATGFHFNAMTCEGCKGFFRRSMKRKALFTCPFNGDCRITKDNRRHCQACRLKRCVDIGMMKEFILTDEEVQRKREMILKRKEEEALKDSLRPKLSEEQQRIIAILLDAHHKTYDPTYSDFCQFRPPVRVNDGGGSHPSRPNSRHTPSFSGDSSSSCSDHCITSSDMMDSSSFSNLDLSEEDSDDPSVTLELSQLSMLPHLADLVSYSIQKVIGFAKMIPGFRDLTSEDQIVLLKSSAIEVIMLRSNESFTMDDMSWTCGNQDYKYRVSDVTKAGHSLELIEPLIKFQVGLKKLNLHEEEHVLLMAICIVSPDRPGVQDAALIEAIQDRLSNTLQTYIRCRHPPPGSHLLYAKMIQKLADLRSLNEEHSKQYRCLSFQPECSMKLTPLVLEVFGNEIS
# Test: Activation of VDR in human HeLa cells assessed as up regulation of phosphorylated p65 expression at 10 uM measured after 24 hrs in the presence of calcitriol by Western blot analysis
# Format: cell-based
row,Activity,SMILES
1,Active,O=C1[C@@H]2CCCN2[C@@H](c2ccco2)N1c1ccc([N+](=O)[O-])cc1
2,Active,COc1ccc(C[C@H]2N(c3ccc([N+](=O)[O-])cc3)C(=O)[C@@H]3CCCN32)cc1OC
3,Active,CSCC[C@H](N)C(=O)Oc1ccc([C@H]2N(c3ccc([N+](=O)[O-])cc3)C(=O)[C@@H]3CCCN32)cc1.Cl
4,Active,CSCC[C@H](NC(=O)OC(C)(C)C)C(=O)Nc1ccc([C@H]2N(c3ccc([N+](=O)[O-])cc3)C(=O)[C@@H]3CCCN32)cc1

# Biological target: T1, Vitamin D3 receptor (Homo sapiens)
# Test: Modulation of VDR in human HeLa cells assessed as increase in calcitriol-induced LC3-2 to LC3-1 ratio at 10 uM measured after 4 hrs by Western blot analysis
# Format: cell-based
row,Activity,SMILES
1,Active,COc1ccc(C[C@H]2N(c3ccc([N+](=O)[O-])cc3)C(=O)[C@@H]3CCCN32)cc1OC
2,Active,CSCC[C@H](N)C(=O)Oc1ccc([C@H]2N(c3ccc([N+](=O)[O-])cc3)C(=O)[C@@H]3CCCN32)cc1.Cl
3,Active,CSCC[C@H](NC(=O)OC(C)(C)C)C(=O)Nc1ccc([C@H]2N(c3ccc([N+](=O)[O-])cc3)C(=O)[C@@H]3CCCN32)cc1

# Tested on: HeLa
# Test: Induction of autophagy in human HeLa cells transformed with VDR shRNA assessed as up regulation of LC3-2 expression at 10 uM measured after 4 hrs in presence of calcitriol by western blot analysis
# Format: functional, cell-based
row,SMILES,Activity
1,O=C1[C@@H]2CCCN2[C@@H](c2ccco2)N1c1ccc([N+](=O)[O-])cc1,Active
2,CSCC[C@H](N)C(=O)Oc1ccc([C@H]2N(c3ccc([N+](=O)[O-])cc3)C(=O)[C@@H]3CCCN32)cc1.Cl,Active
3,CSCC[C@H](NC(=O)OC(C)(C)C)C(=O)Nc1ccc([C@H]2N(c3ccc([N+](=O)[O-])cc3)C(=O)[C@@H]3CCCN32)cc1,Active

# Biological target: T1, Vitamin D3 receptor (Homo sapiens)
# Test: Modulation of VDR (unknown origin) expressed in human HeLa cells assessed as increase in calcitriol-induced response at 10 uM measured after 24 hrs by luciferase reporter assay relative to control
# Format: cell-based
row,fold change (FC),SMILES
1,2.5 to 3,COc1ccc(C[C@H]2N(c3ccc([N+](=O)[O-])cc3)C(=O)[C@@H]3CCCN32)cc1OC
2,2.5 to 3,CSCC[C@H](N)C(=O)Oc1ccc([C@H]2N(c3ccc([N+](=O)[O-])cc3)C(=O)[C@@H]3CCCN32)cc1.Cl

# Tested on: HeLa
# Test: Induction of autophagy in human HeLa cells transformed with VDR shRNA assessed as effect on p62 expression at 10 uM measured after 4 hrs in presence of calcitriol by Western blot analysis
# Format: functional, cell-based
row,SMILES,Activity
1,O=C1[C@@H]2CCCN2[C@@H](c2ccco2)N1c1ccc([N+](=O)[O-])cc1,inactive
2,COc1ccc(C[C@H]2N(c3ccc([N+](=O)[O-])cc3)C(=O)[C@@H]3CCCN32)cc1OC,inactive
3,CSCC[C@H](N)C(=O)Oc1ccc([C@H]2N(c3ccc([N+](=O)[O-])cc3)C(=O)[C@@H]3CCCN32)cc1.Cl,inactive
4,CSCC[C@H](NC(=O)OC(C)(C)C)C(=O)Nc1ccc([C@H]2N(c3ccc([N+](=O)[O-])cc3)C(=O)[C@@H]3CCCN32)cc1,inactive

# Tested on: HeLa
# Test: Up regulation of VDR expression in human HeLa cells at 10 uM measured after 4 hrs in presence of VDR shRNA by Western blot analysis
# Format: functional, cell-based
row,SMILES,Activity
1,O=C1[C@@H]2CCCN2[C@@H](c2ccco2)N1c1ccc([N+](=O)[O-])cc1,inactive
2,COc1ccc(C[C@H]2N(c3ccc([N+](=O)[O-])cc3)C(=O)[C@@H]3CCCN32)cc1OC,Active
3,CSCC[C@H](N)C(=O)Oc1ccc([C@H]2N(c3ccc([N+](=O)[O-])cc3)C(=O)[C@@H]3CCCN32)cc1.Cl,Active
4,CSCC[C@H](NC(=O)OC(C)(C)C)C(=O)Nc1ccc([C@H]2N(c3ccc([N+](=O)[O-])cc3)C(=O)[C@@H]3CCCN32)cc1,Active

# Tested on: HeLa
# Test: Induction of autophagy in human HeLa cells assessed as calcitriol-induced up regulation of LC3-1 expression at 10 uM measured after 4 hrs by Western blot analysis
# Format: functional, cell-based
row,SMILES,Activity
1,O=C1[C@@H]2CCCN2[C@@H](c2ccco2)N1c1ccc([N+](=O)[O-])cc1,Active
2,COc1ccc(C[C@H]2N(c3ccc([N+](=O)[O-])cc3)C(=O)[C@@H]3CCCN32)cc1OC,inactive
3,CSCC[C@H](N)C(=O)Oc1ccc([C@H]2N(c3ccc([N+](=O)[O-])cc3)C(=O)[C@@H]3CCCN32)cc1.Cl,Active
4,CSCC[C@H](NC(=O)OC(C)(C)C)C(=O)Nc1ccc([C@H]2N(c3ccc([N+](=O)[O-])cc3)C(=O)[C@@H]3CCCN32)cc1,Active

# Biological target: T1, Vitamin D3 receptor (Homo sapiens)
# Test: Modulation of VDR in human HeLa cells assessed as down regulation of p65 expression at 10 uM measured after 24 hrs in the presence of calcitriol by Western blot analysis
# Format: cell-based
row,Activity,SMILES
1,Active,O=C1[C@@H]2CCCN2[C@@H](c2ccco2)N1c1ccc([N+](=O)[O-])cc1
2,Active,COc1ccc(C[C@H]2N(c3ccc([N+](=O)[O-])cc3)C(=O)[C@@H]3CCCN32)cc1OC
3,Active,CSCC[C@H](N)C(=O)Oc1ccc([C@H]2N(c3ccc([N+](=O)[O-])cc3)C(=O)[C@@H]3CCCN32)cc1.Cl
4,Active,CSCC[C@H](NC(=O)OC(C)(C)C)C(=O)Nc1ccc([C@H]2N(c3ccc([N+](=O)[O-])cc3)C(=O)[C@@H]3CCCN32)cc1

# Biological target: T1, Vitamin D3 receptor (Homo sapiens)
# Test: Modulation of VDR (unknown origin) expressed in human HeLa cells assessed as increase in calcitriol-induced response measured after 24 hrs by luciferase reporter assay
# Format: cell-based
row,Activity,SMILES
1,Dose-dependent effect,O=C1[C@@H]2CCCN2[C@@H](c2ccco2)N1c1ccc([N+](=O)[O-])cc1
2,Dose-dependent effect,COc1ccc(C[C@H]2N(c3ccc([N+](=O)[O-])cc3)C(=O)[C@@H]3CCCN32)cc1OC
3,Dose-dependent effect,CSCC[C@H](N)C(=O)Oc1ccc([C@H]2N(c3ccc([N+](=O)[O-])cc3)C(=O)[C@@H]3CCCN32)cc1.Cl
4,Dose-dependent effect,CSCC[C@H](NC(=O)OC(C)(C)C)C(=O)Nc1ccc([C@H]2N(c3ccc([N+](=O)[O-])cc3)C(=O)[C@@H]3CCCN32)cc1

# Biological target: T1, Vitamin D3 receptor (Homo sapiens)
# Test: Activation of VDR (unknown origin) expressed in human HeLa cells measured after 24 hrs by luciferase reporter assay
# Format: cell-based
row,Activity,SMILES
1,inactive,O=C1[C@@H]2CCCN2[C@@H](c2ccco2)N1c1ccc([N+](=O)[O-])cc1
2,inactive,COc1ccc(C[C@H]2N(c3ccc([N+](=O)[O-])cc3)C(=O)[C@@H]3CCCN32)cc1OC
3,inactive,CSCC[C@H](N)C(=O)Oc1ccc([C@H]2N(c3ccc([N+](=O)[O-])cc3)C(=O)[C@@H]3CCCN32)cc1.Cl
4,inactive,CSCC[C@H](NC(=O)OC(C)(C)C)C(=O)Nc1ccc([C@H]2N(c3ccc([N+](=O)[O-])cc3)C(=O)[C@@H]3CCCN32)cc1

# Biological target: T1, Vitamin D3 receptor (Homo sapiens)
# Test: Modulation of VDR in human HeLa cells assessed as increase in calcitriol-induced upregulation of p62 expression at 10 uM measured after 4 hrs by Western blot analysis
# Format: cell-based
row,Activity,SMILES
1,Active,O=C1[C@@H]2CCCN2[C@@H](c2ccco2)N1c1ccc([N+](=O)[O-])cc1
2,Active,COc1ccc(C[C@H]2N(c3ccc([N+](=O)[O-])cc3)C(=O)[C@@H]3CCCN32)cc1OC
3,Active,CSCC[C@H](N)C(=O)Oc1ccc([C@H]2N(c3ccc([N+](=O)[O-])cc3)C(=O)[C@@H]3CCCN32)cc1.Cl
4,Active,CSCC[C@H](NC(=O)OC(C)(C)C)C(=O)Nc1ccc([C@H]2N(c3ccc([N+](=O)[O-])cc3)C(=O)[C@@H]3CCCN32)cc1

# Tested on: HeLa
# Test: Induction of autophagy in human HeLa cells transformed with VDR shRNA assessed as effect on p62 expression at 10 uM measured after 4 hrs by Western blot analysis
# Format: functional, cell-based
row,SMILES,Activity
1,O=C1[C@@H]2CCCN2[C@@H](c2ccco2)N1c1ccc([N+](=O)[O-])cc1,inactive
2,COc1ccc(C[C@H]2N(c3ccc([N+](=O)[O-])cc3)C(=O)[C@@H]3CCCN32)cc1OC,inactive
3,CSCC[C@H](N)C(=O)Oc1ccc([C@H]2N(c3ccc([N+](=O)[O-])cc3)C(=O)[C@@H]3CCCN32)cc1.Cl,inactive
4,CSCC[C@H](NC(=O)OC(C)(C)C)C(=O)Nc1ccc([C@H]2N(c3ccc([N+](=O)[O-])cc3)C(=O)[C@@H]3CCCN32)cc1,inactive

# Biological target: T1, Vitamin D3 receptor (Homo sapiens)
# Test: Modulation of VDR in human HeLa cells assessed as increase in calcitriol-induced upregulation of LC3-2 expression at 10 uM measured after 4 hrs by Western blot analysis
# Format: cell-based
row,Activity,SMILES
1,Active,O=C1[C@@H]2CCCN2[C@@H](c2ccco2)N1c1ccc([N+](=O)[O-])cc1
2,Active,COc1ccc(C[C@H]2N(c3ccc([N+](=O)[O-])cc3)C(=O)[C@@H]3CCCN32)cc1OC
3,Active,CSCC[C@H](N)C(=O)Oc1ccc([C@H]2N(c3ccc([N+](=O)[O-])cc3)C(=O)[C@@H]3CCCN32)cc1.Cl
4,Active,CSCC[C@H](NC(=O)OC(C)(C)C)C(=O)Nc1ccc([C@H]2N(c3ccc([N+](=O)[O-])cc3)C(=O)[C@@H]3CCCN32)cc1

# Tested on: HeLa
# Test: Cytotoxicity against human HeLa cells measured after 24 hrs by MTT assay
# Format: cell-based
row,SMILES,CC10
1,O=C1[C@@H]2CCCN2[C@@H](c2ccco2)N1c1ccc([N+](=O)[O-])cc1,> 10 µM
2,COc1ccc(C[C@H]2N(c3ccc([N+](=O)[O-])cc3)C(=O)[C@@H]3CCCN32)cc1OC,> 10 µM
3,CSCC[C@H](N)C(=O)Oc1ccc([C@H]2N(c3ccc([N+](=O)[O-])cc3)C(=O)[C@@H]3CCCN32)cc1.Cl,> 10 µM
4,CSCC[C@H](NC(=O)OC(C)(C)C)C(=O)Nc1ccc([C@H]2N(c3ccc([N+](=O)[O-])cc3)C(=O)[C@@H]3CCCN32)cc1,> 10 µM

# Biological target: Genome polyprotein (dengue virus type 2) (UniProt P29990)
# Test: Inhibition of Dengue virus 2 NS2B-NS3 protease
row,Inhibition (active/not active),SMILES
1,inactive,O=C1[C@@H]2CCCN2[C@@H](c2ccco2)N1c1ccc([N+](=O)[O-])cc1
2,inactive,COc1ccc(C[C@H]2N(c3ccc([N+](=O)[O-])cc3)C(=O)[C@@H]3CCCN32)cc1OC
3,inactive,CSCC[C@H](N)C(=O)Oc1ccc([C@H]2N(c3ccc([N+](=O)[O-])cc3)C(=O)[C@@H]3CCCN32)cc1.Cl
4,inactive,CSCC[C@H](NC(=O)OC(C)(C)C)C(=O)Nc1ccc([C@H]2N(c3ccc([N+](=O)[O-])cc3)C(=O)[C@@H]3CCCN32)cc1

# Tested on: HeLa
# Test: Induction of autophagy in human HeLa cells transformed with VDR shRNA assessed as increase in LC3-2 to LC3-1 ratio at 10 uM measured after 4 hrs in presence of calcitriol by Western blot analysis
# Format: functional, cell-based
row,SMILES,Activity
1,CSCC[C@H](N)C(=O)Oc1ccc([C@H]2N(c3ccc([N+](=O)[O-])cc3)C(=O)[C@@H]3CCCN32)cc1.Cl,Active
